Measurements as given in US5004758A, “Water soluble camptothecin analogs useful for inhibiting the growth of animal tumor cells” (priority 1988, dated 1991).
Where a name gives a salt, the structure may show the parent alone. Read-outs that look alike come from different tables or passages of the source.

Tests used:
sc M5076 sarcoma = assay: sc-implanted M5076 sarcoma in mice; assay type: in vivo, mouse; settings: for Mice without Palpable Tumors: B/ip
From the text: (§1) The inoculum varies with the tumor.

[1] = tested on: IEC-6 (rat intestinal epithelium); assay: Cytotoxicity to normal rodent cells in culture; assay type: cell-based
Procedure: (§2) The cell lines are used and maintained as monolayer cultures in Minimal Essential Media (Grand Island Biological Co., Grand Island, N.Y.) supplemented with 10% fetal calf serum in a 5% CO2 humidified incubator at 37° C. Various concentrations of a Formula (I) compound under sterile conditions were allowed to react for 2 hours followed by aspiration of medium or were exposed continuously. Plates are incubated for 7 days at 37° C. in a CO2 incubator. Medium was aspirated and cells were fixed and stained with ethanol and Geisma stain. The surviving cell population was determined by scanning the plates with an image analyzer. The percent inhibition of proliferation was determined relative to cells incubated in the absence of drug and the 50 percent inhibitory concentration (IC50) was determined by interpolation.

[2] = tested on: NRK52E (rat kidney epithelium); assay: Cytotoxicity to normal rodent cells in culture; assay type: cell-based; settings: NRK-52E
Procedure: as §2

[3] = tested on: sc colon adenocarcinoma 38
Procedure: Inhibition of tumor growth (TGI) is based on mean tumor volume of groups of 7 or 8 mice relative to untreated controls. Tumors were measured between Days 12 and 19 (except Day 24 for Colon 51 and Day 31 for Colon 38).
Tumors used in these studies are maintained by serial transplantation in syngeneic strains of mice C57BL/6 for Lewis lung carcinoma, B16 melanoma and its F10 subline, M5076 sarcoma and colon adenocarcinoma 38; BALB/c for colon carcinoma 26, ADJ-PC6 plasmacytoma Madison lung carcinoma and colon adenocarcinoma 51, C3H for mammary adenocarcinoma 16/c. With the exception of the M5076 sarcoma, which is maintained as a i.p ascites cell suspension, all of the tumors were serially transplanted as s.c. solid tumors.
For therapeutic trials, tumors were aseptically removed from donor mice and prepared for implantation s.c. into test animals. The test animals for Lewis lung carcinoma, B16 melanoma and its F10 subline, M5076 sarcoma and colon adenocarcinoma 38 are syngeneic female F1 hybrid B6D2F mice (C57B1/6×DBA/2). ADJ-PC6 plasmacytoma and colon carcinoma 26 are evaluated in female BALB/c mice. Madison lung carcinoma and colon adenocarcinoma 51 are evaluated in syngeneic female F1 hybrid CD2F1 mice (BALB/c×DBA/2). Mammary adenocarcinoma 16/c is evaluated in female C3H mice. The inoculum varies with the tumor. Colon adenocarcinomas 38 is implanted as 2 mm fragments by trochar. M5076 sarcoma and ADJ-PC6 plasmacytoma are implanted as cell suspensions at 5×10^6 and 2×10^6 cells per mouse, respectively. Colon carcinoma 26, colon adenocarcinoma 51, Lewis lung carcinoma, Madison lung carcinoma and B16 melanoma and its F10 subline are implanted as tumor breis prepared as described above in a volume of 0.5 ml. The brei concentration was 10 percent (w:v) except for colon carcinoma 26 for which the brei concentration was 5 percent (w:v). After tumor inoculation, mice are randomized to treatment groups of 7 or 8 mice. In each experiment, there are three groups of untreated control mice.
Drugs are dissolved or suspended in appropriate aqueous vehicles and given by a variety of routes of administration and treatment schedules over a range of dosage levels. Animals are housed in shoebox cages and are monitored daily for mortality. […] Time for tumor measurement is dependent on the different rates of tumor growth of the different tumors: the most rapidly growing tumors such as the Lewis and Madison lung tumors, B16 melanoma and its F10 subline were measured between Days 12 and 16. The slower growing tumors were measured at later time points--17 days for M5076 sarcoma, 16 or 19 days for mammary adenocarcinoma 16/c, 19 days for ADJ-PC6 plasmacytoma and colon carcinoma 26, 24 days for colon adenocarcinoma 51, and 31 days for colon adenocarcinoma 38.

[4] = tested on: sc mammary adenocarcinoma 16/c; assay: in vivo; set-up: species or system mouse; settings: mouse, in vivo
From the text: as §1

in vivo [5] = assay: in vivo; set-up: species or system mouse; settings: mouse, in vivo, ip
From the text: as §1

in vivo [6] = settings: mouse, ip
From the text: (§3) Tumors used in these studies--P388 leukemia and its doxorbicin--and mitoxanrone-resistant sublines, L1210 leukemia, B16 melanoma, B16 melanoma/F10 subline, M5076 sarcoma and colon carcinoma 26--are maintained by serial transplantation in syngeneic strains of mice. For the leukemias, these tumors are maintained in DBA/2 mice. The M5076 sarcoma, the B16 melanoma and its F10 subline are maintained in C57B1/6 mice and the colon sarcinoma 26 is maintained in BALB/c mice. The leukemias and the M5076 sarcoma are serially transplanted i.p. as ascites cell suspensions while the B16 melanoma lines and the colon carcinoma 26 are serially transplanted as s.c. solid tumors.
(§4) For therapeutic trials, tumors are aseptically removed from donor mice and prepared as suspensions for implantation ip into test animals. The test animals for the colon carcinoma 26 are female BALB/c mice (20-25 gm). The test animals for the other tumor models are syngeneic female F1 hybrid B6D2F1 mice (C57B1/6 x DBA/2). The inoculum level varies with the type of tumor: P388 leukemia is inoculated at 10^6 cells per mouse, L1210 leukemia at 10^5 or 10^6 cells per mouse, M5076 sarcoma at 5×10^6 cells per mouse. For implantation of the B16 melanoma lines and the colon carcinoma 26, s.c. tumors from donor mice are minced and homogenized in loose fitting teflon glass homogenizer to give a tumor brei. The inoculum levels are 0.5 ml of a 10 percent (w:v) brei of the B16 melanoma lines and 0.5 ml of a 5 percent (w:v) brei of colon carcinoma 26. After tumor inoculation, mice randomized to treatment groups comprised of 6-8 mice each. In each experiment, there are three groups of untreated control mice. Drugs are dissolved or suspended in appropriate aqueous vehicles and given by a variety of routes and schedules of administration over a range of dose levels. Animals are housed in shoebox cages and are monitored daily for mortality for 30 (L1210), 45 (P388) or 60 (B16, M5076, colon 26) days.

iv L1210 leukemia = settings: mouse, in vivo
From the text: Animals were inoculated iv with 10^6 cells. Increase in lifespan (ILS) is based on median survival time of groups of 6 mice relative to untreated controls.
The protocols utilized for the evaluation of the antitumor activity of Formula (I) compounds are well established and widely utilized by those skilled in the art of assessing the activity of drugs in preclinical tumor models. These studies generally follow the protocols established by the National Cancer Institute as described by Geran et al., Cancer Chemotherapy Reports, Part 3, Vol. 3, 1-103, 1972.
(§5) Tumors used in these studies P388 leukemia, L1210 leukemia and Lewis lung carcinoma--are maintained by serial transplantation in syngeneic strains of mice, DBA/2 for the leukemias and C57B1/6 for Lewis lung carcinoma. The leukemias are serially transplanted i.p. as ascites cell suspensions while the Lewis lung carcinoma is serially transplanted as a s.c. solid tumor.
(§6) For therapeutic trials, tumors were aseptically removed from donor mice and prepared as suspensions for implantation into test animals which for each tumor are syngeneic female F1 hybrid B6D2F1 mice (C57B1/6×DBA/2). The inoculum level varies with the type of tumor: P388 leukemia is inoculated at 10^6 cells per mouse, L1210 leukemia at 10^5 or 10^6 cells per mouse, and Lewis lung carcinoma at 0.25 ml of a 10 percent (w:v) brei. […] After tumor inoculation, mice are randomized to treatment groups of 6 to 8 mice each. In each experiment, there are three groups of untreated control mice.
(§7) Drugs are dissolved or suspended in appropriate aqueous vehicles and given i.p. or i.v. on various treatment schedules over a range of dosage levels. Animals are housed in shoebox cages and monitored daily for mortality for 30 (L1210), 45 (P388) or 60 (Lewis lung) days.

[7] = tested on: sc Madison lung carcinoma; assay: sc-implanted Madison lung carcinoma in mice; assay type: in vivo, mouse
From the text: as §1

L1210 leukemia cells = assay: cells; assay type: cell-based, mouse; settings: Mus musculus, L1210, read-out: In Vitro Activity IC50
in vivo [8] = settings: mouse, ip; remark: listed apart in the source
From the text: as §5, §6, §7

iv Lewis lung carcinoma = assay: iv-implanted Lewis lung carcinoma in mice; assay type: in vivo, mouse; settings: for Increase in lifespan (ILS) / Long-Term Survivors: iv Lewis lung; for Increase in lifespan (ILS): B/ip (Days 1, 5, 9 and 13); for Long-Term Survivors: B/ip
From the text: as §5, §6, §7

ip B16 melanoma = settings: mouse, in vivo
From the text: as §3, §4

[9] = tested on: sc B16 melanoma/F10 subline; assay: sc-implanted B16 melanoma/F10 subline in mice; assay type: in vivo, mouse
From the text: as §1

[10] = 2 hr exposure, read-out: IC50 2 Hr. Exposure
[11] = continuous exposure, read-out: IC50 Continuous Exposure

CC[C@@]1(O)C(=O)OCc2c1cc1n(c2=O)Cc2cc3c(CN(C)C)c(O)ccc3nc2-1 [Compound No. 1S, (20 S) 9-Dimethylaminomethyl-10-hydroxycamptothecin Acetate Salt]
TGI at three dose levels at or below a maximally tolerated dose (sc M5076 sarcoma; mouse, in vivo): > 90
Tumor growth inhibition (TGI) (sc M5076 sarcoma; mouse, in vivo, 3.2 mg/kg): 64%
Tumor growth inhibition (TGI) (sc M5076 sarcoma; mouse, in vivo, 5.4 mg/kg): 92%
Tumor growth inhibition (TGI) (sc M5076 sarcoma; mouse, in vivo, 9 mg/kg): 98%
Tumor growth inhibition (TGI) (sc M5076 sarcoma; mouse, in vivo, 15 mg/kg): 100%
Tumor growth inhibition (TGI) (sc M5076 sarcoma; mouse, in vivo, 25 mg/kg): toxic
Increase in Lifespan (ILS) or Inhibition of Tumor Growth (TGI) (sc M5076 sarcoma; mouse, in vivo, sc): 100 % TGI
Mice without Palpable Tumors (sc M5076 sarcoma; sc M5076, 3.2 mg/kg/injection): 2/8
Mice without Palpable Tumors (sc M5076 sarcoma; sc M5076, 5.4 mg/kg/injection): 3/8
Mice without Palpable Tumors (sc M5076 sarcoma; sc M5076, 9 mg/kg/injection): 6/8
Mice without Palpable Tumors (sc M5076 sarcoma; sc M5076, 15 mg/kg/injection): 8/8
prolonged lifespan (sc M5076 sarcoma; sc M5076, ip Days 1, 5, 9 and 13): 31%
IC50 [1, 10]: 3.9 µg/mL
IC50 [1, 11]: 0.017 µg/mL
IC50 [2, 10]: 1.2 µg/mL
IC50 [2, 11]: 0.052 µg/mL
inhibition at two dose levels ([3]; mouse, in vivo): > 90
Mice without Palpable Tumors ([3]; mouse, in vivo, 0.78 mg/kg): 2/7
Mice without Palpable Tumors ([3]; mouse, in vivo, 1.3 mg/kg): 4/7
Mice without Palpable Tumors ([3]; mouse, in vivo, 2.2 mg/kg): 4/7
Mice without Palpable Tumors ([3]; mouse, in vivo, 3.6 mg/kg): 6/7
Mice without Palpable Tumors ([3]; mouse, in vivo, 6 mg/kg): 5/7
Increase in Lifespan (ILS) or Inhibition of Tumor Growth (TGI) ([3]; mouse, in vivo, sc): 96 % TGI
Tumor growth inhibition (TGI) ([3]; sc Colon 38, G/ip (Days 3, 10, 17 and 24), 3.1 mg/kg/injection): 0%
Tumor growth inhibition (TGI) ([3]; sc Colon 38, G/ip (Days 3, 10, 17 and 24), 5.2 mg/kg/injection): 0%
Tumor growth inhibition (TGI) ([3]; sc Colon 38, G/ip (Days 3, 10, 17 and 24), 8.6 mg/kg/injection): 55%
Tumor growth inhibition (TGI) ([3]; sc Colon 38, G/ip (Days 3, 10, 17 and 24), 14 mg/kg/injection): 78%
Tumor growth inhibition (TGI) ([3]; sc Colon 38, G/ip (Days 3, 10, 17 and 24), 24 mg/kg/injection): 89%
Mice without Palpable Tumors ([3]; sc Colon 38, G/ip, 3.1 mg/kg/injection): 2/7
Mice without Palpable Tumors ([3]; sc Colon 38, G/ip, 5.2 mg/kg/injection): 1/7
Mice without Palpable Tumors ([3]; sc Colon 38, G/ip, 8.6 mg/kg/injection): 3/7
Mice without Palpable Tumors ([3]; sc Colon 38, G/ip, 14 mg/kg/injection): 5/8
Mice without Palpable Tumors ([3]; sc Colon 38, G/ip, 24 mg/kg/injection): 4/7
Tumor growth inhibition (TGI) ([3]; sc Colon 38, H/ip (every 3 hours x4 on Days 3, 10, 14 and 24), 0.78 mg/kg/injection): 53%
Tumor growth inhibition (TGI) ([3]; sc Colon 38, H/ip (every 3 hours x4 on Days 3, 10, 14 and 24), 1.3 mg/kg/injection): 68%
Tumor growth inhibition (TGI) ([3]; sc Colon 38, H/ip (every 3 hours x4 on Days 3, 10, 14 and 24), 2.2 mg/kg/injection): 74%
Tumor growth inhibition (TGI) ([3]; sc Colon 38, H/ip (every 3 hours x4 on Days 3, 10, 14 and 24), 3.6 mg/kg/injection): 93%
Tumor growth inhibition (TGI) ([3]; sc Colon 38, H/ip (every 3 hours x4 on Days 3, 10, 14 and 24), 6 mg/kg/injection): 96%
Mice without Palpable Tumors ([4]; 5 mg/kg): 2/8
Tumor growth inhibition (TGI) ([4]; 5 mg/kg): 61%
Mice without Palpable Tumors ([4]; 10 mg/kg): 5/8
Tumor growth inhibition (TGI) ([4]; 20 mg/kg): toxic
Mice without Palpable Tumors ([4]; […]): 1/8
Increase in Lifespan (ILS) or Inhibition of Tumor Growth (TGI) ([4]; sc): 96 % TGI
Tumor growth inhibition (TGI) ([4]; sc): 73
MTD (in vivo [5]): 10 mg/kg
MTD (in vivo [6]): 15 mg/kg
ILS (iv L1210 leukemia; 3.2 mg/kg): 50%
Increase in lifespan (ILS) (iv L1210 leukemia; 3.2 mg/kg): 57%
ILS (iv L1210 leukemia; 5.4 mg/kg): 67%
Increase in lifespan (ILS) (iv L1210 leukemia; 5.4 mg/kg): 93%
ILS (iv L1210 leukemia; 9 mg/kg): 83%
Increase in lifespan (ILS) (iv L1210 leukemia; 9 mg/kg): 136%
Increase in lifespan (ILS) (iv L1210 leukemia; 15 mg/kg): 171%
Long-Term Survivors (iv L1210 leukemia; 15 mg/kg): 1/6
ILS (iv L1210 leukemia; 25 mg/kg): toxic
Increase in lifespan (ILS) (iv L1210 leukemia; 25 mg/kg): toxic
Increase in Lifespan (ILS) or Inhibition of Tumor Growth (TGI) (iv L1210 leukemia; iv): Curative
Long-Term Survivors (iv L1210 leukemia; iv, 1.3 mg/kg): 2/7
Long-Term Survivors (iv L1210 leukemia; iv, 2.2 mg/kg): 1/7
Long-Term Survivors (iv L1210 leukemia; iv, 3.6 mg/kg): 5/7
Long-Term Survivors (iv L1210 leukemia; iv, 24 mg/kg): 4/7
TGI at the maximally tolerated dose ([7]; mouse, in vivo): 74
Tumor growth inhibition (TGI) ([7]; mouse, in vivo, 1.5 mg/kg): 0%
Tumor growth inhibition (TGI) ([7]; mouse, in vivo, 3 mg/kg): 0%
Tumor growth inhibition (TGI) ([7]; mouse, in vivo, 6 mg/kg): 21%
Tumor growth inhibition (TGI) ([7]; mouse, in vivo, 12 mg/kg): 0%
Mice without Palpable Tumors ([7]; mouse, in vivo, 24 mg/kg): 1/8
Increase in Lifespan (ILS) or Inhibition of Tumor Growth (TGI) ([7]; mouse, in vivo, sc): 85 % TGI
inhibition of tumor growth at the maximally tolerated dose ([7]; mouse, in vivo, sc): > 70
Tumor growth inhibition (TGI) ([7]; sc Madison lung, C/iv (every 3 hours x4 on Days 1, 5 and 9), 0.19 mg/kg/injection): 0%
Tumor growth inhibition (TGI) ([7]; sc Madison lung, C/iv (every 3 hours x4 on Days 1, 5 and 9), 0.38 mg/kg/injection): 41%
Tumor growth inhibition (TGI) ([7]; sc Madison lung, C/iv (every 3 hours x4 on Days 1, 5 and 9), 0.75 mg/kg/injection): 63%
Tumor growth inhibition (TGI) ([7]; sc Madison lung, C/iv (every 3 hours x4 on Days 1, 5 and 9), 1.5 mg/kg/injection): 85%
Tumor growth inhibition (TGI) ([7]; sc Madison lung, C/iv (every 3 hours x4 on Days 1, 5 and 9), 3 mg/kg/injection): toxic
Mice without Palpable Tumors ([7]; sc Madison lung, C/iv, 0.75 mg/kg/injection): 1/8
Mice without Palpable Tumors ([7]; sc Madison lung, C/iv, 1.5 mg/kg/injection): 3/8
IC50 (L1210 leukemia cells): 56 nM
MTD (in vivo [8]): 15 mg/kg
Increase in Lifespan (ILS) or Inhibition of Tumor Growth (TGI) (iv Lewis lung carcinoma; iv Lewis Lung Carcinoma, optimal doses and optimal schedules, Acetate Salt): Curative
Increase in lifespan (ILS) (iv Lewis lung carcinoma; 3.2 mg/kg/injection): 16%
Increase in lifespan (ILS) (iv Lewis lung carcinoma; 5.4 mg/kg/injection): 37%
Increase in lifespan (ILS) (iv Lewis lung carcinoma; 15 mg/kg/injection): > 200%
Increase in lifespan (ILS) (iv Lewis lung carcinoma; 25 mg/kg/injection): toxic
Long-Term Survivors (iv Lewis lung carcinoma; 9 mg/kg/injection): 1/7
Long-Term Survivors (iv Lewis lung carcinoma; 15 mg/kg/injection): 7/7
ILS (ip B16 melanoma): 130
Increase in Lifespan (ILS) or Inhibition of Tumor Growth (TGI) (ip B16 melanoma; ip): 152 % ILS
Increase in lifespan (ILS) (ip B16 melanoma; ip, 3.2 mg/kg): 43%
Increase in lifespan (ILS) (ip B16 melanoma; ip, 5.4 mg/kg): 52%
Increase in lifespan (ILS) (ip B16 melanoma; ip, 25 mg/kg): toxic
Increase in Lifespan (ILS) or Inhibition of Tumor Growth (TGI) ([9]; mouse, in vivo, sc): 100 % TGI
Tumor growth inhibition (TGI) ([9]; sc B16/F10, B/ip (Days 1, 5, 9 and 13), 3.2 mg/kg/injection): 52%
Tumor growth inhibition (TGI) ([9]; sc B16/F10, B/ip (Days 1, 5, 9 and 13), 5.4 mg/kg/injection): 62%
Tumor growth inhibition (TGI) ([9]; sc B16/F10, B/ip (Days 1, 5, 9 and 13), 9 mg/kg/injection): 57%
Tumor growth inhibition (TGI) ([9]; sc B16/F10, B/ip (Days 1, 5, 9 and 13), 15 mg/kg/injection): 87%
Tumor growth inhibition (TGI) ([9]; sc B16/F10, B/ip (Days 1, 5, 9 and 13), 25 mg/kg/injection): 100%
Mice without Palpable Tumors ([9]; sc B16/F10, B/ip, 25 mg/kg/injection): 7/8
Tumor growth inhibition (TGI) ([9]; sc B16/F10, F/iv (Days 1, 5 and 9), 3.2 mg/kg/injection): 22%
Tumor growth inhibition (TGI) ([9]; sc B16/F10, F/iv (Days 1, 5 and 9), 5.4 mg/kg/injection): 34%
Tumor growth inhibition (TGI) ([9]; sc B16/F10, F/iv (Days 1, 5 and 9), 9 mg/kg/injection): 60%
Tumor growth inhibition (TGI) ([9]; sc B16/F10, F/iv (Days 1, 5 and 9), 15 mg/kg/injection): 97%
Tumor growth inhibition (TGI) ([9]; sc B16/F10, F/iv (Days 1, 5 and 9), 25 mg/kg/injection): 97%
Mice without Palpable Tumors ([9]; sc B16/F10, F/iv, 3.2 mg/kg/injection): 1/8
Mice without Palpable Tumors ([9]; sc B16/F10, F/iv, 5.4 mg/kg/injection): 1/8
Mice without Palpable Tumors ([9]; sc B16/F10, F/iv, 9 mg/kg/injection): 2/8
Mice without Palpable Tumors ([9]; sc B16/F10, F/iv, 15 mg/kg/injection): 7/8
Mice without Palpable Tumors ([9]; sc B16/F10, F/iv, 25 mg/kg/injection): 6/8
Increase in lifespan (ILS) ([9]; sc B16/F10, ip treatment at 25): 70%
tumor growth inhibition at two dose levels ([9]; sc B16/F10, iv on Days 1, 5 and 9): 97%
ILS ([9]; sc B16/F10, iv treatment at the same dose level (25)): 38%
